In ChEMBL document CHEMBL1150852, “Coumarins isolated from Angelica gigas inhibit acetylcholinesterase: structure-activity relationships” (J Nat Prod, 2001) one finds IC50 data, which are given here for ten compounds.

Acetylcholinesterase, sequence (P22303 whole entry): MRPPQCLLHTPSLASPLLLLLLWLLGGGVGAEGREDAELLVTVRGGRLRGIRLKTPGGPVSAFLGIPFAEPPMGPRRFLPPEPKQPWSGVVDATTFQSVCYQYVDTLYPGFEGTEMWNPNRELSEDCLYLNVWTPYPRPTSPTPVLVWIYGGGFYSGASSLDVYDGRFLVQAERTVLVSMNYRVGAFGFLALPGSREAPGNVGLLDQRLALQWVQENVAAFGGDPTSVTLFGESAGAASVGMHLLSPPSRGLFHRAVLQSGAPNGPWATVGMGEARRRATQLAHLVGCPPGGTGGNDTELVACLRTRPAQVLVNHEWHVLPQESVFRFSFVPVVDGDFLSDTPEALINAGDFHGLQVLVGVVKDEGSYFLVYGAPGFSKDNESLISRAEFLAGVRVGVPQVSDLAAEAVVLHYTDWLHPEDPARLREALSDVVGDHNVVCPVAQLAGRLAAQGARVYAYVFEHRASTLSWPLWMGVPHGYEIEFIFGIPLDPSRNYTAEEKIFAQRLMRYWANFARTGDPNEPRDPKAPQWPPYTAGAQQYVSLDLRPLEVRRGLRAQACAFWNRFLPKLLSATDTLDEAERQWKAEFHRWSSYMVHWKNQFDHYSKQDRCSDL

The experiment concerns the target Acetylcholinesterase (Homo sapiens, UniProt P22303). Nature of the experiment: Inhibition of AChE by spectrophotometry.
In general, IC50 refers to the concentration that inhibits the measured activity by half. The compound `C=C(C)[C@H](O)Cc1cc2ccc(=O)oc2cc1O` had an IC50 of 130 µM. Take `COc1cc(OCC=C(C)C)c2ccc(=O)oc2c1`: the IC50 was found to be 240 µM. The figure for `CC(C)=CC(=O)O[C@H]1Cc2cc3ccc(=O)oc3cc2OC1(C)C` [DECURSIN] is 390 µM; for `CC(C)=CCc1cc2ccc(=O)oc2cc1O` [DEMETHYLSUBEROSIN] it is 2400 µM. Take `CC(C)=CCOc1c2ccoc2cc2oc(=O)ccc12` [ISOIMPERATORIN]: the 50% inhibitory concentration (IC50) came to 69 µM. In the case of `CC(C)(O)[C@@H]1Cc2cc3ccc(=O)oc3cc2O1` [MARMESIN] it was 67 µM. The figure for `COc1c2occc2cc2ccc(=O)oc12` [METHOXSALEN] is 54 µM; for `CC(C)(O[C@@H]1O[C@H](CO)[C@@H](O)[C@H](O)[C@H]1O)[C@H]1Cc2cc3ccc(=O)oc3cc2O1` [NODAKENIN] it is 68 µM. The figure for `CC(C)(O)C(=O)Cc1cc2ccc(=O)oc2cc1O` [PEUCEDANONE] is 180 µM; for `CC1(C)C=Cc2cc3ccc(=O)oc3cc2O1` [XANTHYLETIN] it is 150 µM.
